Test results as given in patent US9802899B2, “Heterocyclic compounds as pesticides” (BAYER CROPSCIENCE AG, priority 2012, dated 2017).

Experiment: Determination of the log P values by HPLC (formic acid method)
Assay type: physicochemical
Details: reversed-phase column (C 18), acidic range (pH 3.4), 55° C.; for chromatographic logP: reversed-phase HPLC column (C 18)
Method: 1) Description of Method for Determination of the Log P Values (Formic Acid Method)
Eluents for determination in the acidic range (pH 3.4):
Eluent A: acetonitrile+1 ml of formic acid/liter. Eluent B: water+0.9 ml of formic acid/liter.
The lambda max values were determined in the maxima of the chromatographic signals using the UV spectra from 200 nm to 400 nm.

| Structure (SMILES) | log P | chromatographic logP |
| --- | --- | --- |
| Cc1ccsc1C(=O)Nc1ccn(-c2ncc(F)cc2F)n1 [Compound I-1-510] | 2.38 | – |
| Cc1noc(C(F)(F)F)c1C(=O)Nc1ccn(-c2ncc(F)cc2F)n1 [Compound I-1-511] | 2.61 | – |
| Cn1nc(C(C)(C)C)c([N+](=O)[O-])c1C(=O)Nc1ccn(-c2ncc(F)cc2F)n1 [Compound I-1-512] | 3.11 | – |
| Cn1nc(C(C)(C)C)c(Cl)c1C(=O)Nc1ccn(-c2ncc(F)cc2F)n1 [Compound I-1-513] | 3.89 | – |
| Cc1nn(C)c(C(=O)Nc2ccn(-c3ncc(F)cc3F)n2)c1C(F)F [Compound I-1-514] | 2.13 | – |
| O=C(Nc1ccn(-c2ncc(F)cc2F)n1)c1cnccc1C(F)(F)F [Compound I-1-515] | 2.00 | – |
| O=C(Nc1ccn(-c2ncc(F)cc2F)n1)c1c(C(F)(F)F)cc(F)c(F)c1F [Compound I-1-516] | 2.98 | – |
| Cc1nn(C)c(C(=O)Nc2ccn(-c3ncc(F)cc3F)n2)c1Br [Compound I-1-517] | 2.53 | – |
| CCn1ncc(Br)c1C(=O)Nc1ccn(-c2ncc(F)cc2F)n1 [Compound I-1-518] | 2.61 | – |
| CCn1nc(C)c(Br)c1C(=O)Nc1ccn(-c2ncc(F)cc2F)n1 [Compound I-1-519] | 2.93 | – |
| Cn1cc(Br)c(C(=O)Nc2ccn(-c3ncc(F)cc3F)n2)n1 [Compound I-1-520] | 2.15 | – |
| Cn1ncc(Br)c1C(=O)Nc1ccn(-c2ncc(F)cc2F)n1 [Compound I-1-521] | 2.23 | – |
| Cn1nc(C(F)(F)F)c(Br)c1C(=O)Nc1ccn(-c2ncc(F)cc2F)n1 [Compound I-1-522] | 3.19 | – |
| Cc1oc(C)c(C(=O)Nc2ccn(-c3ncc(F)cc3F)n2)c1Br [Compound I-1-523] | 3.18 | – |
| O=C(Nc1ccn(-c2ncc(F)cc2F)n1)c1cscc1Br [Compound I-1-524] | 2.30 | – |
| Cc1nn(C(F)F)c(C(=O)Nc2ccn(-c3ncc(F)cc3F)n2)c1Cl [Compound I-1-525] | 2.84 | – |
| CCn1ncc(Cl)c1C(=O)Nc1ccn(-c2ncc(F)cc2F)n1 [Compound I-1-526] | 2.42 | – |
| CCn1nc(C)c(Cl)c1C(=O)Nc1ccn(-c2ncc(F)cc2F)n1 [Compound I-1-527] | 2.93 | – |
| CC(C)n1nc([N+](=O)[O-])c(Cl)c1C(=O)Nc1ccn(-c2ncc(F)cc2F)n1 [Compound I-1-528] | 3.11 | – |
| Cn1ncc(Cl)c1C(=O)Nc1ccn(-c2ncc(F)cc2F)n1 [Compound I-1-529] | 2.23 | – |
| Cn1nc([N+](=O)[O-])c(Cl)c1C(=O)Nc1ccn(-c2ncc(F)cc2F)n1 [Compound I-1-530] | 2.50 | – |
| CCCc1nn(C)c(C(=O)Nc2ccn(-c3ncc(F)cc3F)n2)c1Cl [Compound I-1-531] | 3.42 | – |
| CCCc1c(Cl)c(C(=O)Nc2ccn(-c3ncc(F)cc3F)n2)nn1C [Compound I-1-532] | 3.09 | – |

| Structure (SMILES) | log P | chromatographic logP |
| --- | --- | --- |
| CCCn1cc(Cl)c(C(=O)Nc2ccn(-c3ncc(F)cc3F)n2)n1 [Compound I-1-533] | 2.85 | – |
| CCc1nn(C)c(C(=O)Nc2ccn(-c3ncc(F)cc3F)n2)c1Cl [Compound I-1-534] | 2.98 | – |
| Cn1nc(C(F)(F)C(F)(F)F)c(C#N)c1C(=O)Nc1ccn(-c2ncc(F)cc2F)n1 [Compound I-1-535] | 3.19 | – |
| Cn1nc(C(F)(F)F)c(C#N)c1C(=O)Nc1ccn(-c2ncc(F)cc2F)n1 [Compound I-1-536] | 2.76 | – |
| O=C(Nc1ccn(-c2ncc(F)cc2F)n1)c1snnc1C1CC1 [Compound I-1-537] | 2.45 | – |
| Cn1ncc(F)c1C(=O)Nc1ccn(-c2ncc(F)cc2F)n1 [Compound I-1-538] | 2.03 | – |
| CC(C)Cn1ncc(I)c1C(=O)Nc1ccn(-c2ncc(F)cc2F)n1 [Compound I-1-539] | 3.28 | – |
| Cn1ncc(I)c1C(=O)Nc1ccn(-c2ncc(F)cc2F)n1 [Compound I-1-540] | 2.20 | – |
| CCCn1ncc(I)c1C(=O)Nc1ccn(-c2ncc(F)cc2F)n1 [Compound I-1-541] | 2.93 | – |
| Cc1nonc1C(=O)Nc1ccn(-c2ncc(F)cc2F)n1 [Compound I-1-542] | 2.22 | – |
| Cc1cnoc1C(=O)Nc1ccn(-c2ncc(F)cc2F)n1 [Compound I-1-543] | 2.00 | – |
| Cn1cnnc1C(=O)Nc1ccn(-c2ncc(F)cc2F)n1 [Compound I-1-544] | 1.29 | – |
| O=C(Nc1ccn(-c2ncc(F)cc2F)n1)c1ncncc1Cl [Compound I-1-545] | 1.92 | – |
| Cc1snnc1C(=O)Nc1ccn(-c2ncc(F)cc2F)n1 [Compound I-1-546] | 2.15 | – |
| Cc1oncc1C(=O)Nc1ccn(-c2ncc(F)cc2F)n1 [Compound I-1-547] | 1.37 | – |
| CC1=C(C(=O)Nc2ccn(-c3ncc(F)cc3F)n2)CCCO1 [Compound I-1-548] | 2.10 | – |
| O=C(Nc1ccn(-c2ncccc2Br)n1)c1ccccc1C(F)(F)F [Compound I-1-549] | 2.42 | – |
| O=C(Nc1ccn(-c2ncccc2Br)n1)c1cccnc1C(F)(F)F [Compound I-1-550] | 2.34 | – |
| O=C(Nc1ccn(-c2ncccc2Br)n1)c1c(F)cccc1F [Compound I-1-551] | 2.13 | – |
| O=C(Nc1ccn(-c2ncccc2Br)n1)c1ccccc1Br [Compound I-1-552] | 2.31 | – |
| O=C(Nc1ccn(-c2ncccc2Br)n1)c1ccccc1Cl [Compound I-1-553] | 2.23 | – |
| O=C(Nc1ccn(-c2ncccc2Br)n1)c1ccccc1I [Compound I-1-554] | 2.42 | – |
| O=C(Nc1ccn(-c2cccc(Cl)c2F)n1)c1c(F)cccc1F [Compound I-1-556] | 3.12 | – |

| Structure (SMILES) | log P | chromatographic logP |
| --- | --- | --- |
| O=C(Nc1ccn(-c2cccc(Cl)c2F)n1)c1ccccc1Br [Compound I-1-557] | 3.31 | – |
| O=C(Nc1ccn(-c2cccc(Cl)c2F)n1)c1cccnc1Br [Compound I-1-558] | 2.64 | – |
| O=C(Nc1ccn(-c2cccc(Cl)c2F)n1)c1ccccc1Cl [Compound I-1-559] | 3.30 | – |
| O=C(Nc1ccn(-c2ncc(C(F)(F)F)cc2Cl)n1)c1ccccc1C(F)(F)F [Compound I-1-560] | 3.41 | – |
| O=C(Nc1ccn(-c2ncc(C(F)(F)F)cc2Cl)n1)c1ccccc1Cl [Compound I-1-561] | 3.30 | – |
| O=C(Nc1ccn(-c2ncccc2Cl)n1)c1c(F)cccc1F [Compound I-1-564] | 2.12 | – |
| O=C(Nc1ccn(-c2ncccc2Cl)n1)c1cccnc1Br [Compound I-1-565] | 1.68 | – |
| O=C(Nc1ccn(-c2ncccc2Cl)n1)c1ccsc1I [Compound I-1-566] | 2.46 | – |
| Cc1cc(C)c(C#N)c(-n2ccc(NC(=O)c3ccccc3C(F)(F)F)n2)n1 [Compound I-1-567] | 3.15 | – |
| CCN(CC)c1ccc(C#N)c(-n2ccc(NC(=O)c3ccccc3C(F)(F)F)n2)n1 [Compound I-1-568, N-{1-[3-Cyano-6-(diethylamino)pyridin-2-yl]-1H-pyrazol-3-yl}-2-(trifluoromethyl)benzamide] | – | 3.76 |
| N#Cc1ccc(C(F)(F)F)nc1-n1ccc(NC(=O)c2ccccc2C(F)(F)F)n1 [Compound I-1-569, N-{1-[3-Cyano-6-(trifluoromethyl)pyridin-2-yl]-1H-pyrazol-3-yl}-2-(trifluoromethyl)benzamide] | – | 3.41 |
| N#Cc1c(C(F)(F)F)cc(C2CC2)nc1-n1ccc(NC(=O)c2ccccc2C(F)(F)F)n1 [Compound I-1-570, N-{1-[3-Cyano-6-cyclopropyl-4-(trifluoromethyl)pyridin-2-yl]-1H-pyrazol-3-yl}-2-(trifluoromethyl)benzamide] | – | 3.99 |
| Cc1cc(C(F)(F)F)c(C#N)c(-n2ccc(NC(=O)c3ccccc3C(F)(F)F)n2)n1 [Compound I-1-571, N-{1-[3-Cyano-6-methyl-4-(trifluoromethyl)pyridin-2-yl]-1H-pyrazol-3-yl}-2-(trifluoromethyl)benzamide] | – | 3.49 |
| Cc1ccc(C#N)c(-n2ccc(NC(=O)c3ccccc3C(F)(F)F)n2)n1 [Compound I-1-572] | 2.92 | – |
| CCCc1ccc(C#N)c(-n2ccc(NC(=O)c3ccccc3C(F)(F)F)n2)n1 [Compound I-1-573, N-[1-(3-Cyano-6-propylpyridin-2-yl)-1H-pyrazol-3-yl]-2-(trifluoromethyl)benzamide] | – | 3.8 |
| O=C(Nc1ccn(-c2nccc(I)c2F)n1)c1ccccc1C(F)(F)F [Compound I-1-576, N-[1-(3-Fluoro-4-iodopyridin-2-yl)-1H-pyrazol-3-yl]-2-(trifluoromethyl)benzamide] | – | 2.96 |
| O=C(Nc1ccn(-c2ncccc2F)n1)c1cccnc1OC(F)(F)F [Compound I-1-577] | 2.33 | – |
| O=C(Nc1ccn(-c2ncccc2F)n1)c1cccnc1Br [Compound I-1-578] | 1.57 | – |
| O=C(Nc1ccn(-c2ncccc2F)n1)c1cccnc1Cl [Compound I-1-579] | 1.53 | – |
| O=C(Nc1ccn(-c2ncccc2F)n1)c1c(F)cccc1C(F)(F)F [Compound I-1-580] | 2.36 | – |
| O=C(Nc1ccn(-c2ncccc2F)n1)c1ccsc1I [Compound I-1-581] | 2.30 | – |
